Experimental data reported in patent publication EP0558104B1, “1,5-Benzodiazepine derivatives and their use in medicine” (GLAXO WELLCOME S.p.A., priority 1992, dated 1993).
Where two headings read alike, the source gives them in different places.

How the values were obtained:
[1] = target: CCK-B receptor (Cavia porcellus, UniProt H0VZC5); assay: CCK receptor binding, guinea pig cortex assay; design: CCK-B receptor (guinea pig cortex assay); from tissue; host or cells: guinea pig cortex
Description: The greater affinity of the compounds of the invention for the CCK-B receptor over the CCK-A receptor has also been established using the CCK receptor binding assays described by G Dal Fornos et al., J. Pharmcol. Exp & Ther. 261, 1056-1063, 1992.
The binding affinity of the compounds of the invention for the CCK-A receptor (Pancreas Assay) and CCK-B receptor (guinea pig cortex assay) was determined using the procedure of G Dal Forno et al J. Pharmacol. Exp & Ther. 261 - 1056-1063. The pKi values determined with respresentative compounds of invention were as follows: […]

[2] = target: T1, CCK-A receptors (Cavia porcellus, UniProt Q63931); assay: CCK-A antagonist activity, guinea pig isolated ileum longitudinal muscle myenteric plexus preparation; assay type: cell-based
T1 construct: guinea pig isolated ileum longitudinal muscle myenteric plexus preparation; from tissue; host or cells: guinea pig isolated ileum longitudinal muscle-myenteric plexus
T1 sequence (Q63931 1-430): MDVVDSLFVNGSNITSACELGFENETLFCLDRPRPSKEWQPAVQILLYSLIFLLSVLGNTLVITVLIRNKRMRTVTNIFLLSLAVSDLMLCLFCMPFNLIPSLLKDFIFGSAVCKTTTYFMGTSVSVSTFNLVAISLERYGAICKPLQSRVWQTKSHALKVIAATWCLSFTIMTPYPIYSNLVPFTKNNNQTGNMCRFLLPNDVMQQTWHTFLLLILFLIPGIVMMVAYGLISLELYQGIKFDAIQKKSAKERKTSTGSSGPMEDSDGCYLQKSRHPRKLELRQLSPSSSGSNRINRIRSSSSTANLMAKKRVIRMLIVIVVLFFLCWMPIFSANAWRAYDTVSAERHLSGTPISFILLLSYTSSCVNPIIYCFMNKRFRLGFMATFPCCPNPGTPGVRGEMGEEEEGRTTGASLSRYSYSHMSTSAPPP
Description: The preparation and use of guinea-pig isolated ileum longitudinal muscle-myenteric plexus has been described by K-H Buchheit et al in Nauyn-Schmeideberg's Arch. Pharmacol, (1985), 329, p3641 and by V.L. Lucaites et al (1991) in J. Pharmacol. Exp. Ther., 256, 695-703.
The CCK-A antagonist and CCK-B antagonist activites of compounds of the invention were determined using the guinea pig isolated ileum longitudinal muscle myenteric plexus preparation. The compounds were tested using the procedure G Dal Forno et al J. Pharmacol. Exp & Ther. 261 - 1056-1063 1992 and the pKb value for each compound was determined.

[3] = test system: mice; assay: Tolerability after oral administration to mice; assay type: in vivo; details: given orally to mice at doses at which the compound exhibits anxiolytic activity
Excerpt: (§1) The compounds of the invention are essentially non-toxic and therapeutically useful doses.

[4] = test system: rats; assay: Tolerability after oral administration to rats; assay type: in vivo; details: given orally to rats at doses at which the compound exhibits anxiolytic activity
Excerpt: as §1

[5] = test system: rat; assay: Anxiolytic activity in rats (rat social interaction model); assay type: in vivo
Excerpt: (§2) For example in mice in the black-white box test and in the rat social interaction model.

[6] = test system: mice; assay: Anxiolytic activity in mice (black-white box test); assay type: in vivo
Excerpt: as §2

[7] = guinea pig isolated ileum longitudinal muscle myenteric plexus, inhibition of contractile activity of CCK-8, read-out: pKb CCK-A (converted)

Sequence of CCK-B receptor (H0VZC5 entry or part of it): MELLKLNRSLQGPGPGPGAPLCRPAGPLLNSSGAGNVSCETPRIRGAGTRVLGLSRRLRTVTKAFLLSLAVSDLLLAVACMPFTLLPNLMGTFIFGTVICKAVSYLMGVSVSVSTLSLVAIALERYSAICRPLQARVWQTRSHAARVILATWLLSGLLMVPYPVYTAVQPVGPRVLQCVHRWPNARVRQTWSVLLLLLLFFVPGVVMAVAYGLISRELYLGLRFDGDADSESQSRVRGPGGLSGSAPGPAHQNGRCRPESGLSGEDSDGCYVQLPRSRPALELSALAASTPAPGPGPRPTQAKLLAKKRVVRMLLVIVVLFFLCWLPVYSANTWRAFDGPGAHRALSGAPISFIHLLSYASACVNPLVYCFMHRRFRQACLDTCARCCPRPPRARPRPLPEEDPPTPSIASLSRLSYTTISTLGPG

SMILES | Ki [1] | other results
CC(C)CCN1C(=O)C(NC(=O)Nc2ccccc2)C(=O)N(c2ccccc2)c2cc(Cl)ccc21 (centres unmarked) [Example 9, N-[7-Chloro-2,4-dioxo-1-(3-methylbut-1-yl)-5-phenyl-2,3,4,5-tetrahydro-1H-1,5-benzodiazepin-3-yl]-N'-phenylurea] | 4.9 nM | –
CCOC(=O)c1cccc(NC(=O)NC2C(=O)N(CC34CC5CC(CC(C5)C3)C4)c3ccccc3N(c3ccccc3)C2=O)c1 (centres unmarked) [Example 41, N-[1-(1-Adamantylmethyl)-2,4-dioxo-5-phenyl-2,3,4,5-tetrahydro-1H-1,5-benzodiazepin-3-yl]-N'-(3-ethoxycarbonylphenyl)urea] | 2.95 nM | –
O=C(Nc1cccc([N+](=O)[O-])c1)NC1C(=O)N(CC23CC4CC(CC(C4)C2)C3)c2ccccc2N(c2ccccc2)C1=O (centres unmarked) [Example 39, N-[1-(1-Adamantylmethyl)-2,4-dioxo-5-phenyl-2,3,4,5-tetrahydro-1H-1,5-benzodiazepin-3-yl]-N'-(3-nitrophenyl)urea] | 1.91 nM | –
CC(C)(C)C(O)CN1C(=O)C(NC(=O)Nc2ccccc2)C(=O)N(c2ccccc2F)c2ccccc21 (centres unmarked) [Example 7A, N-[1-(3,3-Dimethyl-2-hydroxybut-1-yl)-2,4-dioxo-5-(2-fluorophenyl)-2,3,4,5-tetrahydro-1H-1,5-benzodiazepin-3-yl]-N'-phenylurea] | 1.95 nM | –
O=C(Nc1ccccc1)NC1C(=O)N(CC23CC4CC(CC(C4)C2)C3)c2ccccc2N(c2ccccc2)C1=O (single isomer, unassigned; (+)) [Example 45, (+)-N-[1-(Adamantanmethyl)-2,4-dioxo-5-phenyl-2,3,4,5-tetrahydro-1H-1,5benzodiazepin-3-yl]-N'-phenylurea] | – | Kb [2]: 1260 nM; untoward effects [3]: no untoward effects; untoward effects [4]: no untoward effects; anxiolytic activity [5]: exhibits anxiolytic activity; anxiolytic activity [6]: exhibits anxiolytic activity
O=C(Nc1ccccc1)NC1C(=O)N(CC23CC4CC(CC(C4)C2)C3)c2ccccc2N(c2ccccc2)C1=O (centres unmarked) [Example 14, N-[1-(1-Adamantyl)methyl-2,4-dioxo-5-phenyl-2,3,4,5-tetrahydro-1H-1,5-benzodiazepin-3-yl]-N'-phenylurea] | – | Kb [2]: 158 nM
CC(C)CCN1C(=O)C(NC(=O)Nc2ccccc2)C(=O)N(c2ccccc2)c2ccccc21 (centres unmarked) [Example 25, N-[2,4-Dioxo-5-phenyl-1-(3-methylbut-1-yl)-2,3,4,5-tetrahydro-1H-1,5-benzodiazepin-3-yl]-N'-phenylurea] | – | Kb [2, 7]: > 1000 nM
CC(C)CCN1C(=O)C(NC(=O)Nc2cccc(N(C)C)c2)C(=O)N(c2ccccc2F)c2ccccc21 (centres unmarked) [Example 4, N-[2,4-dioxo-5-(2-fluorophenyl)-1-(3-methylbut-1-yl)-2,3,4,5-tetrahydro-1H-1,5-benzodiazepin-3-yl]-N'-(3-dimethylamino)phenylurea] | 0.251 nM | Kb [2, 7]: 3160 nM
CN(C)c1ccc(NC(=O)NC2C(=O)N(CCC3CCCC3)c3ccccc3N(c3ccccc3F)C2=O)cc1 (centres unmarked) [Example 30, N-[1-(2-cyclopentyl-ethyl)-2,4-dioxo-5-(2-fluorophenyl)-2,3,4,5-tetrahydro-1H-1,5-benzodiazepin-3-yl]-N'-[4-(dimethylamino)phenyl]urea] | 0.724 nM | –
CC(C)(C)CCN1C(=O)C(NC(=O)Nc2ccccc2)C(=O)N(c2ccccc2)c2ccccc21 (centres unmarked) [Example 16, N-[1-(3,3-Dimethylbutyl)-2,4-dioxo-5-phenyl-2,3,4,5-tetrahydro-1H-1,5-benzodiazepin-3-yl]-N'-phenylurea] | 0.676 nM | –
O=C(Nc1ccccc1)NC1C(=O)N(CC2CC3C=CC2C3)c2ccccc2N(c2ccccc2)C1=O (centres unmarked) [Example 31, N-[1-(Bicyclo [2.2.1]-5-heptene-2-ylmethyl)-2,4-dioxo-5-phenyl-2,3,4,5-tetrahydro-1H-1,5-benzodiazepin-3yl]-N'-phenylurea] | 1.51 nM | –
CC(C)CCN1C(=O)C(NC(=O)Nc2ccccc2)C(=O)N(c2ccccc2)c2cc(Cl)c(Cl)cc21 (centres unmarked) [Example 11, N-[7,8-dichloro-2,4-Dioxo-1-(3-methylbut-1-yl)-5-phenyl-2,3,4,5-tetrahydro-1H-1,5-benzodiazepin-3-yl]-N'-phenylurea] | 9.77 nM | –
